# Experimental data taken from US20100092499A1, “Alpha Thymosin Peptides as Cancer Vaccine Adjuvants” (SCICLONE PHARMACEUTICALS, INC., priority 2004, published 2010).
# Key:
# advanced breast cancer = assay: Clinical study of dendritic cell vaccine with or without thymalfasin in advanced breast cancer patients; assay type: in vivo, human; details: for Patient Survival: 12 months; for Patient Survival / Patients with Tumor Reduction >50%: Group 3 non responders (LPI <20 U), 6 dendritic cell immunizations plus thymalfasin 1.6 mg twice a week, n=5; for Patients with Tumor Reduction >50%: Month 6
# Protocol: Finally, the patients were immunized with the activated B cells hybrid itself, or a B cell hybrid cocultured with the patients' Dendritic Cells. This immunization was applied into a healthy lymph node once every three weeks. At the same time, the patients received 1.6 mg thymalfasin subcutaneously in the evenings (within between 7:00 pm and 9:00 pm) every 3 days during the time of immunization and for the following six months after the vaccination protocol was completed. This vaccination plan may, for example, involve from 4 to 10 doses, although these numbers are not exclusive.
# Eighteen patients with advanced breast cancer resistant to chemo, radio and hormonotherapy were treated.
# All the patients were female with Breast Cancer class 4 (with metastases).
# The age rank was between 39 to 71 years.
# The patients were treated with dendritic cell vaccine (according protocol: Annals of Oncology 2004-Vol 15. Supp. 3 Abs: iii40-Dendritic Cell Vaccine for Metastases Breast Cancer).
# (§1) After the second vaccination course, the cellular immunization were measured, if this is >=20 ULPI (Linfocitic Proliferative Index) continued with the vaccination.
# If the response was <20 ULPI, the patients were divided in 2 groups (randomized) of 5 and 7 patients group. The 5 patients group received Dendritic Cells
# Vaccine plus thymalfasin (1.6 mg/tw during 6 months).
# The clinical response and the survival data originated on total 18 metastatic breast patients treated were collected and, in order to perform a case serial statistic analysis we divided the total population in three different groups.
# In Group 3 (n=5), patients received 6 dendritic cell immunizations with an LPI <20 U (non immune response) after the second vaccine and they received thymalfasin (1.6 mg/twice a week).
# patient tumor cells = assay: Lymphocyte Proliferation Assay (LPI); assay type: cell-based, human; details: five patients with LPI lower than 20 U after second DC immunization; thymalfasin 1.6 mg twice a week for 6 months plus 4 additional DC vaccine courses
# Protocol: as §1
# The patient immune response was measured using a well known in-vitro test named Lymphocyte Proliferation Assay. Briefly, mononuclear cells from the patient were purified and mixed with a suspension of the patient tumor cells at ratio 10:1 (3000 Lympho-monocytes vs 300 tumor cells). The mix cell suspension was seeded in a multi well plate and incubated at 37° C. After 96 hr the cells were harvested and counted by an automatic haemocytometer.
# human CD34 stem cells = details: added to human CD34 stem cells in culture; cited from earlier work
# [1] = tested on: IFNγ, IL-2, IL-3, IL-2 receptor; details: following activation by mitogens or antigens; cited from earlier work
# thymocytes = details: in vitro, dose-dependent; most pronounced on CD4CD8 double positive immature T cells; cited from earlier work
# [2] = in vivo; cited from earlier work
substance,measurement,setting,value
thymosin alpha 1 [thymalfasin],Patient Survival,advanced breast cancer,80%
same,Patient Survival,advanced breast cancer; listed as THYMALFASIN,80%
same,Patients with Tumor Reduction >50%,advanced breast cancer,80%
same,Patients with Tumor Reduction >50%,advanced breast cancer; listed as THYMALFASIN,80%
same,Patient survival compared with immune responders and non immune responders who did not receive thymalfasin,"advanced breast cancer; advanced breast cancer patients, dendritic cell immunization",higher
same,effective tumor response,"advanced breast cancer; five patients with LPI lower than 20 U, thymalfasin 1.6 mg twice a week for 6 months plus 4 additional DC vaccine courses",majority of the treated patients showed an effective tumor response
same,Lymphocyte Proliferation Index (LPI),patient tumor cells,able to improve the LPI
same,"thymopoiesis (number of total CD3 T cells, synthesis of IL-7)",human CD34 stem cells,increased thymopoiesis
same,"production of IFNγ, IL-2, IL-3 and expression of the IL-2 receptor",[1],can increase production
same,dexamethasone-induced apoptosis in thymocytes,thymocytes,antagonizes
same,safety / side effects,[2],safe drug and its potential side effects are significantly low
